The assay concerns the target T1, P2X4 receptor (Homo sapiens, UniProt Q99571).
T1 construct: expressed in transfected cells; host or cells: 1321N1 astrocytoma cells, retroviral vector pQCXIN, G418 selection, monoclones
T1 sequence (Q99571 1-388): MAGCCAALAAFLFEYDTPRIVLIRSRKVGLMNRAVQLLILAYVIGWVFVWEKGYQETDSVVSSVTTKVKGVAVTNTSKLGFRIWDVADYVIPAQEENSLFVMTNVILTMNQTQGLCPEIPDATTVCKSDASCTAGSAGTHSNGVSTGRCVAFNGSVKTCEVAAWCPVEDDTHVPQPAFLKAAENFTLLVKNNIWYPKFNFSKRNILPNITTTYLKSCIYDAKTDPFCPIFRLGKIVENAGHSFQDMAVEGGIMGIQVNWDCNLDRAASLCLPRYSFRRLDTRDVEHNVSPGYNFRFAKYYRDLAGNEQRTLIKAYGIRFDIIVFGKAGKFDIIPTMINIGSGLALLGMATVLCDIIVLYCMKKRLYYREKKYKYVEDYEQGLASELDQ
Description: Measurement of Ca2+ influx in transfected 1321N1 astrocytoma cells (P2X4 inhibitory potency). Format: cell-based. To be noted: agonist-mediated Ca2+ influx, FLUO-4, 1321N1 astrocytoma cells; antagonists added 30 min before agonist. Put shortly: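 Stable 1321N1 astrocytoma cells expressing human P2X4, loaded with FLUO-4 AM (2.4 μM) in HBSS/HEPES pH 7.3 for 1 h at 23 °C. Antagonists added 30 min before agonist; fluorescence at 520 nm recorded for 30 s. Compounds tested at 7–8 concentrations spanning three log units.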

A value given as a limit tells only on which side of the number the result lay.

The IC50 is the concentration at which inhibition is half-maximal. A lower IC50 goes with greater potency. The compound `Cc1nsc(-c2ccc(C)c(NCC(=O)N3CCc4c(NS(C)(=O)=O)cccc43)c2)n1` [Example 46, N-(1-((2-methyl-5-(3-methyl-1,2,4-thiadiazol-5-yl)phenyl)glycyl)indolin-4-yl)methanesulfonamide] returned an IC50 of 20 to 39 nM.
The compound `COc1ccc(-c2cc(C)c(C)cn2)cc1NCC(=O)N1CCc2c(O)cccc21` [Example 121, 2-((5-(4,5-dimethyl-pyridin-2-yl)-2-methoxyphenyl)amino)-1-(4-hydroxyindolin-1-yl) ethan-1-one] displayed an IC50 of more than 100 nM.
In turn, `Cc1nsc(-c2ccc(C)c(NCC(=O)N3CCc4c3cccc4N3C(=O)CCC3=O)c2)n1` [Example 17, 1-(1-((2-methyl-5-(3-methyl-1,2,4-thiadiazol-5-yl)phenyl)glycyl)indolin-4-yl) pyrrolidine-2,5-dione] returned an IC50 of 0.1 to 19 nM.
The value for `Cc1nsc(-c2ccc(C)c(NCC(=O)N3CC(CCO)c4ccccc43)c2)n1` (stereo not shown) [Example 58, 1-(3-(2-hydroxyethyl)indolin-1-yl)-2-((2-methyl-5-(3-methyl-1,2,4-thiadiazol-5-yl)phenyl)amino)ethan-1-one] was more than 100 nM.
Compound `CCc1nsc(-c2ccc(F)c(NCC(=O)N3CCc4c(N5CC(O)C5)cccc43)c2)n1` [Example 56, 2-((5-(3-ethyl-1,2,4-thiadiazol-5-yl)-2-fluorophenyl)amino)-1-(4-(3-hydroxyazetidin-1-yl)indolin-1-yl)ethan-1-one] returned an IC50 of 0.1 to 19 nM.
As to `Cc1nsc(-c2ccc(N3CCCC3)c(NCC(=O)N3CCc4c(OCC(C)(C)O)cccc43)c2)n1` [Example 24, 1-(4-(2-hydroxy-2-methylpropoxy)indolin-1-yl)-2-((5-(3-methyl-1,2,4-thiadiazol-5-yl)-2-(pyrrolidin-1-yl)phenyl)-amino)ethan-1-one], the IC50 lay within 0.1 to 19 nM.
For `COC(=O)c1cccc2c1CCN2C(=O)CNc1cc(-c2ccc(C)cn2)ccc1OC` [Example 119, methyl 1-((2-methoxy-5-(5-methylpyridin-2-yl)phenyl)glycyl) indoline-4-carboxylate], the IC50 lay in the range of 70 to 99 nM.
The value for `CCc1nsc(-c2ccc(C)c(NCC(=O)N3CCc4c(C(=O)N5CCN(C)CC5)cccc43)c2)n1` [Example 45, 2-((5-(3-ethyl-1,2,4-thiadiazol-5-yl)-2-methylphenyl)amino)-1-(4-(4-methylpiperazine-1-carbonyl)indolin-1-yl) ethan-1-one] was 20 to 39 nM; that for `COc1cc2[nH]cc(C(=O)CNc3cc(-c4nc(C)ns4)ccc3OC)c2cc1F` [Example 94, 1-(5-fluoro-6-methoxy-1H-indol-3-yl)-2-((2-methoxy-5-(3-methyl-1,2,4-thiadiazol-5-yl)phenyl)amino)ethan-1-one] was 0.1 to 19 nM; that for `Cc1ccc(-c2nc(C3CC3)ns2)cc1NCC(=O)N1CCc2c(OCC(C)(C)O)cccc21` [Example 38, 2-((5-(3-cyclopropyl-1,2,4-thiadiazol-5-yl)-2-methylphenyl)amino)-1-(4-(2-hydroxy-2-methylpropoxy)-indolin-1-yl)ethan-1-one] was 20 to 39 nM.
As for `Cc1nsc(-c2ccc(C)c(NCC(=O)N3CCc4c(OCCOCCO)cccc43)c2)n1` [Example 31, 1-(4-(2-(2-hydroxyethoxy)-ethoxy)indolin-1-yl)-2-((2-methyl-5-(3-methyl-1,2,4-thiadiazol-5-yl)phenyl)-amino)ethan-1-one], the half-maximal inhibitory concentration (IC50) is 20 to 39 nM.
The compound `Cc1nsc(-c2ccc(C)c(NCC(=O)N3CCc4c(OCCC(C)(C)O)cccc43)c2)n1` [Example 30, 1-(4-(3-hydroxy-3-methylbutoxy)indolin-1-yl)-2-((2-methyl-5-(3-methyl-1,2,4-thiadiazol-5-yl)phenyl)amino)ethan-1-one] registered an IC50 of 0.1 to 19 nM.
In the case of `Cc1nsc(-c2ccc(C)c(NCC(=O)N3CCc4c(-c5cc[nH]n5)cccc43)c2)n1` [Example 70, 1-(4-(1H-pyrazol-3-yl)indolin-1-yl)-2-((2-methyl-5-(3-methyl-1,2,4-thiadiazol-5-yl)phenyl)amino)ethan-1-one] it was 0.1 to 19 nM.

Source of the values: patent publication US20260209215A1, “GLYCINE DERIVATIVES WITH P2X4 RECEPTOR-BLOCKING ACTIVITY AS DIAGNOSTICS AND FOR THE TREATMENT OF PAIN, INFLAMMATION, CANCER, AND OTHER P2X4 RECEPTOR-RELATED DISEASES” (RHEINISCHE-FRIEDRICH-WILHELMS-UNIVERSITÄT BONN, priority 2022, published 2026).
